Reference: US10457655B2, “Compounds and compositions for inhibition of FASN” (FORMA Therapeutics, Inc., priority 2013, dated 2019)

The compounds below were run against FASN enzyme (Homo sapiens, UniProt P49327) (assay: Enzymatic Assay for FASN Inhibitors). Conditions: not given.
Type: biochemical
Summary of the method: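 40 nM FASN preincubated with compound 60 min at 25° C in HEPES pH 7.3 buffer with 0.04% Triton X-100. Then 20 μM acetyl-CoA, 60 μM malonyl-CoA and 100 μM NADPH added for 90 min, quenched with CPM thiol probe; fluorescence 360/530 nm, IC50 by four-parameter fit.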

FASN enzyme, sequence (P49327 whole entry): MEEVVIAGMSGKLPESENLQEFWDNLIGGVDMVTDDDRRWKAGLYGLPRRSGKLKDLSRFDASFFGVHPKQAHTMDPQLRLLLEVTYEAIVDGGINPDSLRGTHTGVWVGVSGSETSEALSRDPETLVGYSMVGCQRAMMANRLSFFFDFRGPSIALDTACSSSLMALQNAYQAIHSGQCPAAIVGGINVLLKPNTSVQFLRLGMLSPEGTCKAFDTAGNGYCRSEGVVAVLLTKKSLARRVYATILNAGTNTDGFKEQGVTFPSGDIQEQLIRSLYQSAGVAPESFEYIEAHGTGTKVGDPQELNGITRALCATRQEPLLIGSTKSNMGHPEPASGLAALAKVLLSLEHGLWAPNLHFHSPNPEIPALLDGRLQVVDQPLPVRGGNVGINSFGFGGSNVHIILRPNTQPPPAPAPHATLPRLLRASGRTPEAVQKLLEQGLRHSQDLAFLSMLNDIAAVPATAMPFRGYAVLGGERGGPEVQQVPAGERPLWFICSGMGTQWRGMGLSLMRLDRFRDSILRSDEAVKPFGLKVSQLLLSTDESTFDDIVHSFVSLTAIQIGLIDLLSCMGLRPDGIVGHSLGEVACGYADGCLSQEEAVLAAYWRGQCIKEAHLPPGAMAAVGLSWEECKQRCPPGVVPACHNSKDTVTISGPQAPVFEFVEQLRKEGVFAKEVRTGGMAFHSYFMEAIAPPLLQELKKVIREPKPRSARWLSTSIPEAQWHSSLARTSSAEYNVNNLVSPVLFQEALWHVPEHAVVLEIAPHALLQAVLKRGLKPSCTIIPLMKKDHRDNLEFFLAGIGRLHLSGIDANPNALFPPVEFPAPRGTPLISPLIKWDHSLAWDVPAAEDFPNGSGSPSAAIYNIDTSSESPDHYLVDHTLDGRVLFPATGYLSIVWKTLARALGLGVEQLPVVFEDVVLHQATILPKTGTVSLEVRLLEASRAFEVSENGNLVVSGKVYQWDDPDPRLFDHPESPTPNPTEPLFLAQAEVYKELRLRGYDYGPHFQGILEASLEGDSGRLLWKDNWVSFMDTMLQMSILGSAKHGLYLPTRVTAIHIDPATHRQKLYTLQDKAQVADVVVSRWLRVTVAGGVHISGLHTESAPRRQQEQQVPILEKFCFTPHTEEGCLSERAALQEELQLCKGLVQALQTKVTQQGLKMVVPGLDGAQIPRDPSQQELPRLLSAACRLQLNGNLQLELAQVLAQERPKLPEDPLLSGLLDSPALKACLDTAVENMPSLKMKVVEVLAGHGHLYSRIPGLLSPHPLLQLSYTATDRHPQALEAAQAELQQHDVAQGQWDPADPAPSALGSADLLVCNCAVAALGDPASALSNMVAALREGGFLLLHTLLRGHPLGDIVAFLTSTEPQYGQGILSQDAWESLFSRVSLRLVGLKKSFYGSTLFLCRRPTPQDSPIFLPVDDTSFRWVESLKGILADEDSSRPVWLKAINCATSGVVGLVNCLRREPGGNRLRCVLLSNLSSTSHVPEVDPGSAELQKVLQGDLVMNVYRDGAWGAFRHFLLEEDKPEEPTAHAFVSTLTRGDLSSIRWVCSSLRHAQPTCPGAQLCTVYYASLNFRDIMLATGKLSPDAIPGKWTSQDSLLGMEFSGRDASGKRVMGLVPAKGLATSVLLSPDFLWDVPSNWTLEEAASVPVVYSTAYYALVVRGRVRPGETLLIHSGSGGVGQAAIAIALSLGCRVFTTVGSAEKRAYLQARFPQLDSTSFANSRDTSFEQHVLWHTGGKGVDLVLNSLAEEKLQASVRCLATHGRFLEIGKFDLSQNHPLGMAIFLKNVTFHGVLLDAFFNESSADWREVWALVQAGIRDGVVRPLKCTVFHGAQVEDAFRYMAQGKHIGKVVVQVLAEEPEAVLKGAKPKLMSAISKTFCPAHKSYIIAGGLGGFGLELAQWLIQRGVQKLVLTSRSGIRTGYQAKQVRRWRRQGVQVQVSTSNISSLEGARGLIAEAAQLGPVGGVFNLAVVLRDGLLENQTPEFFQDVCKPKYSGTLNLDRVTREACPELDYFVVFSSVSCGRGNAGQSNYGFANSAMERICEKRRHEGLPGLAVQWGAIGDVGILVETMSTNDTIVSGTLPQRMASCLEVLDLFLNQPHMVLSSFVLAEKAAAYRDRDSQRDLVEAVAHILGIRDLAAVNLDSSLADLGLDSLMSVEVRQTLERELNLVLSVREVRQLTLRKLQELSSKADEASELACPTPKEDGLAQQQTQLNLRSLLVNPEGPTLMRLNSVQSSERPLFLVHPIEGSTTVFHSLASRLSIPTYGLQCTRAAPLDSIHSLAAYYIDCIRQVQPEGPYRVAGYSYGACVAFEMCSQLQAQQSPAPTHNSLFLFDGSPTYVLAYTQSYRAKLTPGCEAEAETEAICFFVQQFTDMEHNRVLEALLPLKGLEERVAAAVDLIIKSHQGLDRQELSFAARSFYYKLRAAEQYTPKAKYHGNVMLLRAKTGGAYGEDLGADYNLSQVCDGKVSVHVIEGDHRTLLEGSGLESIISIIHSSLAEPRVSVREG

SMILES	IC50 [µM]
Cn1ncc2ccc(-c3ccc(C(=O)N4CCN(C(=O)C5(O)CC5)CC4)cc3F)cc21 [1-{4-[3-fluoro-4-(1-methyl-1H-indazol-6-yl)benzoyl]piperazine-1-carbonyl}cyclopropan-1-ol]	< 0.5
Cn1ncc2ccc(-c3ccc(C(=O)N4CCN(C(=O)C5(O)CC5)CC4)c(Cl)c3)cc21 [1-{4-[2-chloro-4-(1-methyl-1H-indazol-6-yl)benzoyl]piperazine-1-carbonyl}cyclopropan-1-ol]	< 0.5
Cn1ncc2ccc(-c3ccc(C(=O)N4CCN(C(=O)C5(O)CC5)CC4)cc3Cl)cc21 [1-{4-[3-chloro-4-(1-methyl-1H-indazol-6-yl)benzoyl]piperazine-1-carbonyl}cyclopropan-1-ol]	< 0.5
Cc1n[nH]c2cc(-c3ccc(C(=O)N4CCN(C(=O)C5(O)CC5)CC4)c(F)c3)ccc12	< 0.5
O=C(c1ccc(-c2cccc(OC3CC3)c2)cc1)N1CCN(C(=O)C2(O)CC2)CC1	< 0.5
Cc1n[nH]c2c(-c3ccc(C(=O)N4CCN(C(=O)C5(N)CC5)CC4)c(F)c3)cccc12 [1-{4-[2-fluoro-4-(3-methyl-1H-indazol-7-yl)benzoyl]piperazine-1-carbonyl}cyclopropan-1-amine]	< 0.5
Cc1nc(-c2cccc(-c3ccc(C(=O)N4CCN(C(=O)C5(O)CC5)CC4)cc3)c2)no1 [1-(4-{4-[3-(5-methyl-1,2,4-oxadiazol-3-yl)phenyl]benzoyl}piperazine-1-carbonyl)cyclopropan-1-ol]	< 0.5
O=C(c1ccc(-c2cccc(NS(=O)(=O)C3CCC3)c2)cc1)N1CCN(C(=O)C2(O)CC2)CC1 [N-(3-{4-[4-(1-hydroxycyclopropanecarbonyl)piperazine-1-carbonyl]phenyl}phenyl)cyclobutanesulfonamide]	< 0.5
Nc1noc2ccc(-c3ccc(C(=O)N4CCN(C(=O)C5(O)CC5)CC4)cc3)cc12 [1-{4-[4-(3-amino-1,2-benzoxazol-5-yl)benzoyl]piperazine-1-carbonyl}cyclopropan-1-ol]	< 0.5
C[C@@H]1CN(C(=O)c2ccc(-c3ccc(Cl)cc3F)cc2)CCN1C(=O)C1(O)CC1 [1-[(2R)-4-[4-(4-chloro-2-fluorophenyl)benzoyl]-2-methylpiperazine-1-carbonyl]cyclopropan-1-ol]	< 0.5
O=C(c1ccc(-c2cccc(NS(=O)(=O)C3CCCC3)c2)cc1)N1CCN(C(=O)C2(O)CC2)CC1	< 0.5
Cn1cnc2cc(-c3ccc(C(=O)N4CCN(C(=O)C5(O)CC5)CC4)cc3Cl)ccc21 [1-{4-[3-chloro-4-(1-methyl-1H-1,3-benzodiazol-5-yl)benzoyl]piperazine-1-carbonyl}cyclopropan-1-ol]	< 0.5
C[C@H]1CN(C(=O)c2ccc(-c3nc4ccc(F)cc4o3)cc2)CCN1C(=O)C1(N)CC1 [1-[(2S)-4-[4-(6-fluoro-1,3-benzoxazol-2-yl)benzoyl]-2-methylpiperazine-1-carbonyl]cyclopropan-1-amine]	< 0.5
COc1ccc2c(c1)CN(c1ccc(C(=O)N3CCN(C(=O)C4(O)CC4)CC3)cc1)CC2 [1-{4-[4-(7-methoxy-1,2,3,4-tetrahydroisoquinolin-2-yl)benzoyl]piperazine-1-carbonyl}cyclopropan-1-ol]	< 0.5
O=C(c1ccc(-c2ccc(Cl)c(Cl)c2)cc1)N1CCN(C(=O)C2(O)CC2)CC1 [1-[(4-{[4-(3,4-dichlorophenyl)phenyl]carbonyl}piperazin-1-yl)carbonyl]cyclopropan-1-ol]	< 0.5
Cc1n[nH]c2cc(-c3ccc(C(=O)N4CCN(C(=O)C5(O)CC5)CC4)cc3)ccc12 [1-{4-[4-(3-methyl-1H-indazol-6-yl)benzoyl]piperazine-1-carbonyl}cyclopropan-1-ol]	< 0.5
O=C(c1ccc(N2CCCc3ccccc32)cc1)N1CCN(C(=O)C2(O)CC2)CC1	< 0.5
O=C(c1ccc(-c2cccc(NS(=O)(=O)C3CCOCC3)c2)cc1)N1CCN(C(=O)C2(O)CC2)CC1 [N-(3-{4-[4-(1-hydroxycyclopropanecarbonyl)piperazine-1-carbonyl]phenyl}phenyl)oxane-4-sulfonamide]	< 0.5
C[C@H]1CN(C(=O)C2(O)CC2)CCN1C(=O)c1ccc(-c2nc3ccc(F)cc3o2)cc1 [1-[(3S)-4-[4-(6-fluoro-1,3-benzoxazol-2-yl)benzoyl]-3-methylpiperazine-1-carbonyl]cyclopropan-1-ol]	< 0.5
Cc1nn(C)c2ccc(-c3ccc(C(=O)N4CCN(C(=O)C5(O)CC5)CC4)cc3F)cc12 [1-{4-[4-(1,3-dimethyl-1H-indazol-5-yl)-3-fluorobenzoyl]piperazine-1-carbonyl}cyclopropan-1-ol]	< 0.5
Nc1noc2cc(-c3ccc(C(=O)N4CCN(C(=O)C5(O)CC5)CC4)cc3)ccc12 [1-{4-[4-(3-amino-1,2-benzoxazol-6-yl)benzoyl]piperazine-1-carbonyl}cyclopropan-1-ol]	< 0.5
Cn1cnc2cc(-c3ccc(C(=O)N4CCN(C(=O)C5(N)CCC5)CC4)c(F)c3)ccc21 [1-{4-[2-fluoro-4-(1-methyl-1H-1,3-benzodiazol-5-yl)benzoyl]piperazine-1-carbonyl}cyclobutan-1-amine]	< 0.5
CN1C(=O)Cc2c(-c3ccc(C(=O)N4CCN(C(=O)C5(O)CC5)CC4)cc3)cccc21 [4-{4-[4-(1-hydroxycyclopropanecarbonyl)piperazine-1-carbonyl]phenyl}-1-methyl-2,3-dihydro-1H-indol-2-one]	< 0.5

Same assay, conditions: FASN enzymatic assay; Table 2-2

SMILES	IC50 [µM]
O=C(c1ccc(-c2nc3c(Cl)cccc3[nH]2)cc1)N1CCN(C(=O)C2(O)CC2)CC1 [1-[(4-{[4-(4-chloro-1H-1,3-benzodiazol-2-yl)phenyl]carbonyl}piperazin-1-yl)carbonyl]cyclopropan-1-ol]	0.5 to 5
O=C(c1ccc(-c2cn3ccnc3cn2)cc1)N1CCN(C(=O)C2(O)CC2)CC1 [1-({4-[(4-{imidazo[1,2-a]pyrazin-6-yl}phenyl)carbonyl]piperazin-1-yl}carbonyl)cyclopropan-1-ol]	0.5 to 5
O=C(c1ccc(-c2ccccc2)cc1)N1CCN(C(=O)C2(O)CCC2)CC1 [1-({4-[(4-phenylphenyl)carbonyl]piperazin-1-yl}carbonyl)cyclobutan-1-ol]	0.5 to 5
O=C(c1cnc(-c2ccc3ncccc3c2)cn1)N1CCN(C(=O)C2(O)CC2)CC1 [1-[(4-{[5-(quinolin-6-yl)pyrazin-2-yl]carbonyl}piperazin-1-yl)carbonyl]cyclopropan-1-ol]	0.5 to 5
O=C(c1ccc(-c2ccc3oc(=O)[nH]c3c2)cc1)N1CCN(C(=O)C2(O)CC2)CC1 [5-[4-({4-[(1-hydroxycyclopropyl)carbonyl]piperazin-1-yl}carbonyl)phenyl]-2,3-dihydro-1,3-benzoxazol-2-one]	0.5 to 5
Cn1c(-c2ccc(C(=O)N3CCN(C(=O)C4(O)CC4)CC3)cc2)nc2ccccc21 [1-[(4-{[4-(1-methyl-1H-1,3-benzodiazol-2-yl)phenyl]carbonyl}piperazin-1-yl)carbonyl]cyclopropan-1-ol]	0.5 to 5
Cc1noc2cc(-c3ccc(C(=O)N4CCN(C(=O)C5(O)CC5)CC4)cc3)ccc12 [1-[(4-{[4-(3-methyl-1,2-benzoxazol-6-yl)phenyl]carbonyl}piperazin-1-yl)carbonyl]cyclopropan-1-ol]	0.5 to 5

Same assay, conditions: FASN enzymatic assay; Table 2-3

SMILES	IC50 [µM]
O=C(c1cn2cc(-c3ccccc3)ccc2n1)N1CCN(C(=O)C2(O)CC2)CC1 [1-{[4-({6-phenylimidazo[1,2-a]pyridin-2-yl}carbonyl)piperazin-1-yl]carbonyl}cyclopropan-1-ol]	≥ 5
COc1c(F)cccc1-c1ccc(C(=O)N2CCN(C(=O)C3(O)CC3)CC2)cc1 [1-[(4-{[4-(3-fluoro-2-methoxyphenyl)phenyl]carbonyl}piperazin-1-yl)carbonyl]cyclopropan-1-ol]	≥ 5
Cc1nc(-c2ccc3scnc3c2)sc1C(=O)N1CCN(C(=O)C2(O)CC2)CC1 [1-[(4-{[2-(1,3-benzothiazol-5-yl)-4-methyl-1,3-thiazol-5-yl]carbonyl}piperazin-1-yl)carbonyl]cyclopropan-1-ol]	≥ 5
O=C(c1ccc(-c2cn3cc(F)ccc3n2)cc1)N1CCN(C(=O)C2(O)CC2)CC1 [1-({4-[(4-{6-fluoroimidazo[1,2-a]pyridin-2-yl}phenyl)carbonyl]piperazin-1-yl}carbonyl)cyclopropan-1-ol]	≥ 5
CC(C)Oc1ccc(Cl)cc1-c1ccc(C(=O)N2CCN(C(=O)C3(O)CC3)CC2)cc1 [1-{[4-({4-[5-chloro-2-(propan-2-yloxy)phenyl]phenyl}carbonyl)piperazin-1-yl]carbonyl}cyclopropan-1-ol]	≥ 5
C[C@H](O)C(=O)N1CCN(C(=O)c2ccc(-c3ccccc3)cc2)CC1 [(2S)-2-hydroxy-1-{4-[(4-phenylphenyl)carbonyl]piperazin-1-yl}propan-1-one]	≥ 5
CC(C)Oc1cccc(-c2ccc(C(=O)N3CCN(C(=O)C4(O)CC4)CC3)cc2)c1F [1-{[4-({4-[2-fluoro-3-(propan-2-yloxy)phenyl]phenyl}carbonyl)piperazin-1-yl]carbonyl}cyclopropan-1-ol]	≥ 5
O=C(c1ccc(Oc2ccccc2)cc1)N1CCN(C(=O)C2(O)CC2)CC1 [1-({4-[(4-phenoxyphenyl)carbonyl]piperazin-1-yl}carbonyl)cyclopropan-1-ol]	≥ 5
O=C(c1ccc(-c2ccc(Cl)cc2F)nc1)N1CCN(C(=O)C2(O)CC2)CC1 [1-[(4-{[6-(4-chloro-2-fluorophenyl)pyridin-3-yl]carbonyl}piperazin-1-yl)carbonyl]cyclopropan-1-ol]	≥ 5
COc1ccc(F)c(-c2ccc(C(=O)N3CCN(C(=O)C4(O)CC4)CC3)cc2)c1 [1-[(4-{[4-(2-fluoro-5-methoxyphenyl)phenyl]carbonyl}piperazin-1-yl)carbonyl]cyclopropan-1-ol]	≥ 5
COc1c(Cl)ccc(-c2ccc(C(=O)N3CCN(C(=O)C4(O)CC4)CC3)cc2)c1Cl [1-[(4-{[4-(2,4-dichloro-3-methoxyphenyl)phenyl]carbonyl}piperazin-1-yl)carbonyl]cyclopropan-1-ol]	≥ 5
